Test results published in patent US10632195B2, “Pharmaceutical device for electric-field assisted administration of Tapentadol and method of administering Tapentadol with same” (Gruenenthal GmbH, priority 2012, dated 2020).
Where “and” joins values, the source holds several entries; their conditions need not be identical. Identical values can stand only once. Counter-ions that a name gives are not always drawn.

What was measured:
[1] = pH of the donor solution (Tapentadol hydrochloride 100 mM in water) before and after iontophoresis; format: physicochemical
Description: (§1) The anode was placed in the donor chamber; the donor solution was 3 ml of Tapentadol hydrochloride (100 mM, i.e. 25.78 mg/ml of Tapentadol hydrochloride, 22.13 mg/ml of base) in water. The cathode was placed in the receptor chamber, which contained 3 ml of phosphate-buffered saline, pH 7.4. Both chambers were stirred by magnets.
(§2) Voltages were as expected for 6 cells in series (range was 6 to 28 volts). The pH of the donor solution was measured after termination of 24 hours of iontophoresis, and ranged from 6.47 to 6.99. The pH of drug in the donor prior to commencing the experiment was 5.07 (5.34 for the 8 hour iontophoresis).

[2] = iontophoretic transdermal delivery of Tapentadol hydrochloride, 24 hours of iontophoresis (example 1b), side-bi-side diffusion cells, constant current 0.25 mA (0.4 mA/cm2), donor 100 mM in water; format: in vitro ADME, pig; details: for drug flux across the skin, Mean ± SD / drug flux across the skin, as tapentadol base, Mean ± SD / cumulative, iontophoretic delivery across the skin, Mean ± SD / cumulative, iontophoretic delivery across the skin, as tapentadol base, Mean ± SD: n=6; for drug flux across the skin, Mean ± SD / drug flux across the skin, as tapentadol base, Mean ± SD / cumulative, iontophoretic delivery across the skin, Mean ± SD / cumulative, iontophoretic delivery across the skin, as tapentadol base, Mean ± SD / drug flux across the skin / cumulative, iontophoretic delivery across the skin: patch area 0.64 cm^2; for drug flux across the skin / cumulative, iontophoretic delivery across the skin: single cells 1-6, hydrochloride; for cumulative, iontophoretic delivery across the skin: listed as Tapentadol HCl
Description: Determination of the rate of iontophoretic transdermal delivery of Tapentadol hydrochloride for a period of 24 hours of iontophoresis
Tapentadol hydrochloride (batch no. A0012) was employed. The components of the phosphate buffered saline (PBS) and the mobile phase used were from Sigma, UK. The pig skin was obtained from a local farm, washed with water, excess hair was carefully trimmed with scissors, and the skin was dermatomed using a Zimmer dermatome set at a nominal thickness of 750 μm. The skin was then stored at −20° C.
The drug was delivered from the anode, using side-bi-side (horizontal) glass diffusion cells (n=6) supplied by Permegear, USA. The porcine skin membrane was excised from the dorsal surface.
Electrodes were prepared in-house and were made of silver/silver chloride. To pass current for 24 hours in this set-up, it was necessary for the donor compartment to contain 76 mM chloride ions.
as §1
Current was applied for a total of 8 or 24 hours, respectively.
The receptor solution was sampled and assayed at 0.5, 1, 2, 3, 4, 5, 6, 7, 8 (example 1a) and optionally 24 hours (example 1b) post-initiation of the current. During the 8 hour experiment (example 1a), at 0.5, 1, 2, and 3 hours, 1 ml of receptor solution was removed and replaced with fresh PBS. As it was clear that the amount of Tapentadol in the receptor solution was sufficient for quantitation by HPLC, at the subsequent sampling times of 4, 5, 6, 7 and 8 hours, the entire receptor solution (3 ml) was removed and replaced with fresh PBS, to ensure sink conditions in the receptor. During the 24 hour experiment (example 1b), the entire receptor solution (3 ml) was removed and replaced with fresh PBS at every sampling point.
The concentrations of Tapentadol hydrochloride in the receptor chamber samples were determined by HPLC. A mobile phase consisting of 300:700:1 methanol:water:phosphoric acid was pumped (1 ml/min) through a Acclaim RP-18 (4×150 mm) reverse-phase column (Dionex, UK) at 35° C. Tapentadol concentrations were quantified via their UV absorbance at 215 nm using a calibration curve diluted in PBS at pH 7.4. Injection volume was 20 μl and the retention time for Tapentadol hydrochloride was 12 minutes and the total run time was 16 minutes.
A Tapentadol-free “blank” diffusion cell (donor was saline only) was also prepared and the receptor solution was analysed after 8 hours to confirm no peaks from any component of the skin co-eluted with the Tapentadol hydrochloride.
as §2

[3] = 24 hours iontophoresis, as tapentadol hydrochloride

Structure (SMILES): CC[C@@H](c1cccc(O)c1)[C@@H](C)CN(C)C [Tapentadol hydrochloride]
- pH of drug in the donor ([1]; prior to commencing the experiment (8 hour iontophoresis)): 5.34
- pH of drug in the donor ([1]; prior to commencing the experiment (24 hour iontophoresis)): 5.07
- drug flux across the skin, Mean ± SD ([2]; 0.5 h, iontophoresis): 3 ± 2 µg/h
- drug flux across the skin, as tapentadol base, Mean ± SD ([2]; 0.5 h, iontophoresis): 3 ± 2 µg/h
- cumulative, iontophoretic delivery across the skin, Mean ± SD ([2]; 0.5 h): 2 ± 1 µg
- cumulative, iontophoretic delivery across the skin, as tapentadol base, Mean ± SD ([2]; 0.5 h): 1 ± 1 µg
- drug flux across the skin, Mean ± SD ([2]; 1 h, iontophoresis): 48 ± 22 µg/h
- drug flux across the skin, as tapentadol base, Mean ± SD ([2]; 1 h, iontophoresis): 41 ± 19 µg/h
- cumulative, iontophoretic delivery across the skin, Mean ± SD ([2]; 1 h): 26 ± 12 µg
- cumulative, iontophoretic delivery across the skin, as tapentadol base, Mean ± SD ([2]; 1 h): 22 ± 10 µg
- drug flux across the skin, Mean ± SD ([2]; 1.5 h, iontophoresis): 96 ± 22 µg/h
- drug flux across the skin, as tapentadol base, Mean ± SD ([2]; 1.5 h, iontophoresis): 82 ± 19 µg/h
- cumulative, iontophoretic delivery across the skin, Mean ± SD ([2]; 1.5 h): 74 ± 22 µg
- cumulative, iontophoretic delivery across the skin, as tapentadol base, Mean ± SD ([2]; 1.5 h): 63 ± 19 µg
- drug flux across the skin, Mean ± SD ([2]; 2 h, iontophoresis): 144 ± 38 µg/h
- drug flux across the skin, as tapentadol base, Mean ± SD ([2]; 2 h, iontophoresis): 124 ± 33 µg/h
- cumulative, iontophoretic delivery across the skin, Mean ± SD ([2]; 2 h): 146 ± 41 µg
- cumulative, iontophoretic delivery across the skin, as tapentadol base, Mean ± SD ([2]; 2 h): 125 ± 35 µg
- drug flux across the skin, Mean ± SD ([2]; 3 h, iontophoresis): 176 ± 32 µg/h
- drug flux across the skin, as tapentadol base, Mean ± SD ([2]; 3 h, iontophoresis): 151 ± 28 µg/h
- drug flux across the skin ([2]; 3 h, iontophoresis): 128 µg/h and 147 µg/h and 203 µg/h and 208 µg/h and 181 µg/h and 190 µg/h
- cumulative, iontophoretic delivery across the skin, Mean ± SD ([2]; 3 h): 322 ± 72 µg
- cumulative, iontophoretic delivery across the skin, as tapentadol base, Mean ± SD ([2]; 3 h): 276 ± 61 µg
- cumulative, iontophoretic delivery across the skin ([2]; 3 h): 224 µg and 259 µg and 364 µg and 419 µg and 315 µg and 348 µg
- drug flux across the skin, Mean ± SD ([2]; 4 h, iontophoresis): 232 ± 27 µg/h
- drug flux across the skin, as tapentadol base, Mean ± SD ([2]; 4 h, iontophoresis): 199 ± 23 µg/h
- drug flux across the skin ([2]; 4 h, iontophoresis): 184 µg/h and 217 µg/h and 238 µg/h and 257 µg/h and 248 µg/h
- cumulative, iontophoretic delivery across the skin, Mean ± SD ([2]; 4 h): 554 ± 96 µg
- cumulative, iontophoretic delivery across the skin, as tapentadol base, Mean ± SD ([2]; 4 h): 475 ± 83 µg
- cumulative, iontophoretic delivery across the skin ([2]; 4 h): 408 µg and 476 µg and 602 µg and 676 µg and 563 µg and 596 µg
- drug flux across the skin, Mean ± SD ([2]; 5 h, iontophoresis): 270 ± 22 µg/h
- drug flux across the skin, as tapentadol base, Mean ± SD ([2]; 5 h, iontophoresis): 232 ± 19 µg/h
- drug flux across the skin ([2]; 5 h, iontophoresis): 227 µg/h and 271 µg/h and 283 µg/h and 285 µg/h and 284 µg/h and 272 µg/h
- cumulative, iontophoretic delivery across the skin, Mean ± SD ([2]; 5 h): 824 ± 116 µg
- cumulative, iontophoretic delivery across the skin, as tapentadol base, Mean ± SD ([2]; 5 h): 707 ± 99 µg
- cumulative, iontophoretic delivery across the skin ([2]; 5 h): 635 µg and 747 µg and 885 µg and 962 µg and 847 µg and 867 µg
- drug flux across the skin, Mean ± SD ([2]; 6 h, iontophoresis): 277 ± 18 µg/h
- drug flux across the skin, as tapentadol base, Mean ± SD ([2]; 6 h, iontophoresis): 238 ± 16 µg/h
- drug flux across the skin ([2]; 6 h, iontophoresis): 243 µg/h and 282 µg/h and 298 µg/h and 277 µg/h and 286 µg/h and 274 µg/h
- cumulative, iontophoretic delivery across the skin, Mean ± SD ([2]; 6 h): 1101 ± 129 µg
- cumulative, iontophoretic delivery across the skin, as tapentadol base, Mean ± SD ([2]; 6 h): 945 ± 111 µg
- cumulative, iontophoretic delivery across the skin ([2]; 6 h): 878 µg and 1029 µg and 1183 µg and 1239 µg and 1133 µg and 1142 µg
- drug flux across the skin, Mean ± SD ([2]; 7 h, iontophoresis): 282 ± 18 µg/h
- drug flux across the skin, as tapentadol base, Mean ± SD ([2]; 7 h, iontophoresis): 242 ± 15 µg/h
- drug flux across the skin ([2]; 7 h, iontophoresis): 248 µg/h and 292 µg/h and 282 µg/h and 295 µg/h
- cumulative, iontophoretic delivery across the skin, Mean ± SD ([2]; 7 h): 1382 ± 144 µg
- cumulative, iontophoretic delivery across the skin, as tapentadol base, Mean ± SD ([2]; 7 h): 1187 ± 123 µg
- cumulative, iontophoretic delivery across the skin ([2]; 7 h): 1125 µg and 1322 µg and 1465 µg and 1534 µg and 1425 µg and 1424 µg
- drug flux across the skin, Mean ± SD ([2]; 8 h, iontophoresis): 288 ± 30 µg/h
- drug flux across the skin, as tapentadol base, Mean ± SD ([2]; 8 h, iontophoresis): 247 ± 26 µg/h
- drug flux across the skin ([2]; 8 h, iontophoresis): 254 µg/h and 331 µg/h and 256 µg/h and 302 µg/h and 282 µg/h
- cumulative, iontophoretic delivery across the skin, Mean ± SD ([2]; 8 h): 1671 ± 155 µg
- cumulative, iontophoretic delivery across the skin, as tapentadol base, Mean ± SD ([2]; 8 h): 1434 ± 133 µg
- cumulative, iontophoretic delivery across the skin ([2]; 8 h): 1380 µg and 1653 µg and 1721 µg and 1836 µg and 1727 µg and 1706 µg
- drug flux across the skin, Mean ± SD ([2]; 24 h, iontophoresis): 309 ± 26 µg/h
- drug flux across the skin, as tapentadol base, Mean ± SD ([2]; 24 h, iontophoresis): 265 ± 23 µg/h
- drug flux across the skin ([2]; 24 h, iontophoresis): 300 µg/h and 342 µg/h and 330 µg/h and 323 µg/h and 282 µg/h and 277 µg/h
- cumulative, iontophoretic delivery across the skin, Mean ± SD ([2]; 24 h): 6616 ± 468 µg
- cumulative, iontophoretic delivery across the skin, as tapentadol base, Mean ± SD ([2]; 24 h): 5680 ± 402 µg
- cumulative, iontophoretic delivery across the skin ([2]; 24 h): 6185 µg and 7120 µg and 7001 µg and 7000 µg and 6247 µg and 6145 µg
- cumulative amount delivered across a 0.64 cm2 area of skin, as tapentadol base ([2]; 24 hours iontophoresis): 5.7 mg
- cumulative amount delivered per 1 cm2, as tapentadol base ([2]; 24 hours iontophoresis): 8.9 mg
- cumulative amount delivered across a 0.64 cm2 area of skin [2, 3]: 6.6 mg
- cumulative amount delivered per 1 cm2 [2, 3]: 10.3 mg
- time by which steady-state flux appears to have been reached ([2]; example 1b, iontophoresis): 5 to 6 h
- difference between flux during iontophoresis and flux due to passive diffusion ([2]; iontophoresis vs comparative example 1b): 30 fold
